# From US20250345328A1, “METHODS OF TREATING A RAS RELATED DISEASE OR DISORDER” (Revolution Medicines, Inc., priority 2023, published 2025)
# Assay: Phase 1/1b study of Compound A: safety, treatment-related adverse events
# Type: in vivo, human
# Method: This Example describes the study design of a Phase 1/1b study of Compound A in patients with advanced solid tumors harboring specific mutations in RAS with the first patient dosed in June 2022. There are 2 parts planned in this study: Part 1: Dose Escalation and Part 2: Dose Expansion. In the Dose Escalation Phase, safety/tolerability and pharmacokinetics (PK) are assessed, and one or more candidate recommended phase 2 dose and schedule (RP2DS) for further testing in the second part of the study is determined. Enrollment in the Dose Expansion Phase begins after determination of a candidate RP2DS. Part 2 of the study further evaluates the safety/tolerability, PK, and preliminary antitumor effects within specific histotypes. Dose Expansion/Dose Optimization cohorts include RAS-mutant advanced solid tumors with specific histotypes/genotypes (including, but not limited to, NSCLC, PDAC, CRC, melanoma, gynecological cancers, other solid tumors.
# Safety assessments and procedures were performed. Real-time safety monitoring was performed to ensure that the protocol-specified dose modification guidelines are followed. In addition, C1 safety and available PK and pharmacodynamic data was reviewed and evaluated at each Compound A dose level/schedule to determine whether enrollment into the next higher dose-level cohort may proceed. A modified schedule can be evaluated in which Compound A may be administered more or less frequently than once daily (QD). The totality of the data from dose escalation cohorts was reviewed and one or more candidate RP2DS for expansion in Part 2 recommended.
# Compound A was administered PO QD at the following dose levels until disease progression or unacceptable toxicity: 10, 20, 40, 80, 120, 160, 220, 300, 400, and 500 mg. Progression to the next Cohort and dose level may stop if DLT is observed at a lower dose level. Other dose levels not specified but within the range listed above may also be permitted based on emergent safety and PK data.
# As of Sep. 11, 2023, 131 patients received Compound A at dose levels from 10 to 400 mg QD. The majority of patients had pancreatic cancer, non-small cell lung cancer, or colorectal cancer. The most common (≥10% of patients) treatment-related adverse events (TRAEs) were rash and gastrointestinal (GI)-related toxicities that were all Grade 1 or 2 in severity. Most rashes were acneiform or maculopapular, consistent with known on-target rash presentation from other RAS pathway inhibitors. […] The most common GI-related toxicities were nausea, diarrhea, and vomiting that were manageable with standard supportive care. The median duration of treatment at the time of the data extraction was 2.27 months.
# [1] = Total (N = 131), 10 to 400 mg QD, as of Sep. 11, 2023
# [2] = Total (N = 131), 10 to 400 mg QD, post-data extraction associated with biliary obstruction, reported as unrelated to Compound A
structure (smiles),measurement,setting,value
CCn1c(-c2cc(N3CCN(C)CC3)cnc2[C@H](C)OC)c2c3cc(ccc31)-c1csc(n1)C[C@H](NC(=O)[C@H]1C[C@@H]1C)C(=O)N1CCC[C@H](N1)C(=O)OCC(C)(C)C2 [Compound A],Dose dependence of rash,"131 patients, 10 to 400 mg QD","Rash frequency, but not severity, was dose-dependent"
same,Fatal TRAEs,"131 patients, 10 to 400 mg QD",No fatal TRAEs
same,Severity of the most common (≥10% of patients) TRAEs (rash and GI-related toxicities),"131 patients, 10 to 400 mg QD",Grade 1 or 2
same,"ALT elevation TRAE, Any Grade",[1],8 (6) n(%)
same,"ALT elevation TRAE, maximum severity Grade 1",[1],6 (5) n(%)
same,"ALT elevation TRAE, maximum severity Grade 2",[1],1 (1) n(%)
same,"ALT elevation TRAE, maximum severity Grade 4",[1],0 n(%)
same,"AST elevation TRAE, Any Grade",[1],7 (5) n(%)
same,"AST elevation TRAE, maximum severity Grade 1",[1],6 (5) n(%)
same,"AST elevation TRAE, maximum severity Grade 2",[1],0 n(%)
same,"AST elevation TRAE, maximum severity Grade 4",[1],0 n(%)
same,"Diarrhea TRAE, Any Grade",[1],42 (32) n (%)
same,"Diarrhea TRAE, maximum severity Grade 1",[1],32 (24) n (%)
same,"Diarrhea TRAE, maximum severity Grade 2",[1],9 (7) n (%)
same,"Diarrhea TRAE, maximum severity Grade 3",[1],1 (1) n (%)
same,"Diarrhea TRAE, maximum severity Grade 4",[1],0 n (%)
same,"Electrocardiogram QT prolonged TRAE, Any Grade",[1],1 (1) n(%)
same,"Electrocardiogram QT prolonged TRAE, maximum severity Grade 1",[1],1 (1) n(%)
same,"Electrocardiogram QT prolonged TRAE, maximum severity Grade 2",[1],0 n(%)
same,"Electrocardiogram QT prolonged TRAE, maximum severity Grade 3",[1],0 n(%)
same,"Electrocardiogram QT prolonged TRAE, maximum severity Grade 4",[1],0 n(%)
same,"Fatigue TRAE, Any Grade",[1],16 (12) n (%)
same,"Fatigue TRAE, maximum severity Grade 1",[1],12 (9) n (%)
same,"Fatigue TRAE, maximum severity Grade 2",[1],4 (3) n (%)
same,"Fatigue TRAE, maximum severity Grade 3",[1],0 n (%)
same,"Fatigue TRAE, maximum severity Grade 4",[1],0 n (%)
same,"Nausea TRAE, Any Grade",[1],55 (42 n (%)
same,"Nausea TRAE, maximum severity Grade 1",[1],41 (31) n (%)
same,"Nausea TRAE, maximum severity Grade 2",[1],14 (11) n (%)
same,"Nausea TRAE, maximum severity Grade 3",[1],0 n (%)
same,"Nausea TRAE, maximum severity Grade 4",[1],0 n (%)
same,"Rash* TRAE, Any Grade",[1],92 (70) n (%)
same,"Rash* TRAE, maximum severity Grade 1",[1],57 (44) n (%)
same,"Rash* TRAE, maximum severity Grade 2",[1],29 (22) n (%)
same,"Rash* TRAE, maximum severity Grade 3",[1],6 (5) n (%)
same,"Rash* TRAE, maximum severity Grade 4",[1],0 n (%)
same,"Stomatitis TRAE, Any Grade",[1],21 (16) n (%)
same,"Stomatitis TRAE, maximum severity Grade 1",[1],10 (8) n (%)
same,"Stomatitis TRAE, maximum severity Grade 2",[1],9 (7) n (%)
same,"Stomatitis TRAE, maximum severity Grade 3",[1],2 (2) n (%)
same,"Stomatitis TRAE, maximum severity Grade 4",[1],0 n (%)
same,"TRAEs leading to dose reduction, Any Grade",[1],11 (8) n(%)
same,"TRAEs leading to dose reduction, maximum severity Grade 1",[1],0 n(%)
same,"TRAEs leading to dose reduction, maximum severity Grade 2",[1],9 (7) n(%)
same,"TRAEs leading to dose reduction, maximum severity Grade 3",[1],2 n(%)
same,"TRAEs leading to dose reduction, maximum severity Grade 4",[1],0 n(%)
same,"TRAEs leading to treatment discontinuation, Any Grade",[1],1 (1) n(%)
same,"TRAEs leading to treatment discontinuation, maximum severity Grade 1",[1],0 n(%)
same,"TRAEs leading to treatment discontinuation, maximum severity Grade 2",[1],0 n(%)
same,"TRAEs leading to treatment discontinuation, maximum severity Grade 3",[1],0 n(%)
same,"TRAEs leading to treatment discontinuation, maximum severity Grade 4",[1],1 (1) n(%)
same,"Vomiting TRAE, Any Grade",[1],36 (28) n (%)
same,"Vomiting TRAE, maximum severity Grade 1",[1],27 (21) n (%)
same,"Vomiting TRAE, maximum severity Grade 2",[1],9 (7) n (%)
same,"Vomiting TRAE, maximum severity Grade 3",[1],0 n (%)
same,"Vomiting TRAE, maximum severity Grade 4",[1],0 n (%)
same,"ALT elevation TRAE, maximum severity Grade 3",[2],1 (1)+ n(%)
same,"AST elevation TRAE, maximum severity Grade 3",[2],1 (1)+ n(%)
same,Discontinuation of study treatment due to death,"one PDAC (120 mg) due to PD, one NSCLC (200 mg) unknown cause reported as unrelated to Compound A",Two patients discontinued study treatment due to death
same,Grade 4 TRAE (leading to treatment discontinuation),"one patient with PDAC treated at 80 mg, at the site of an invasive tumor",large intestine perforation
